Several values for one entry are separate records, joined by “and”; a condition that tells them apart may be missing. Identical values can stand only once.
Assay: xn = mol fraction of the nth substance listed

Clc1ccccc1 + CS(C)=O
viscosity [mPa·s]
Settings | 298.15 K | 299 K | 308.15 K | 318.15 K
101 kPa, x2 = 0.0871 | – | 1.227 | – | –
101 kPa, x2 = 0.2483 | – | 1.401 | – | –
101 kPa, x2 = 0.462 | – | 1.715 | – | –
101 kPa, x2 = 0.5887 | – | 2.067 | – | –
101 kPa, x2 = 0.7046 | – | 2.357 | – | –
101 kPa, x2 = 0.8612 | – | 2.819 | – | –
101.3 kPa, x1 = 0.035 | 1.865 | – | 1.559 | 1.273
101.3 kPa, x1 = 0.072 | 1.803 | – | 1.474 | 1.224
101.3 kPa, x1 = 0.148 | 1.682 | – | 1.39 | 1.142
101.3 kPa, x1 = 0.23 | 1.564 | – | 1.29 | 1.098
101.3 kPa, x1 = 0.317 | 1.421 | – | 1.17 | 1.021
101.3 kPa, x1 = 0.411 | 1.299 | – | 1.077 | 0.927
101.3 kPa, x1 = 0.511 | 1.193 | – | 0.986 | 0.865
101.3 kPa, x1 = 0.619 | 1.085 | – | 0.929 | 0.833
101.3 kPa, x1 = 0.736 | 0.966 | – | 0.823 | 0.742
101.3 kPa, x1 = 0.863 | 0.866 | – | 0.733 | 0.668
101.3 kPa, x1 = 0.936 | 0.826 | – | 0.704 | 0.643
101.33 kPa, x2 = 0.1 | 0.826 | – | 0.738 | 0.656
101.33 kPa, x2 = 0.2 | 0.905 | – | 0.807 | 0.709
101.33 kPa, x2 = 0.3 | 0.993 | – | 0.88 | 0.769
101.33 kPa, x2 = 0.4 | 1.094 | – | 0.958 | 0.832
101.33 kPa, x2 = 0.5 | 1.206 | – | 1.043 | 0.902
101.33 kPa, x2 = 0.6 | 1.329 | – | 1.136 | 0.981
101.33 kPa, x2 = 0.7 | 1.466 | – | 1.239 | 1.068
101.33 kPa, x2 = 0.8 | 1.616 | – | 1.361 | 1.165
101.33 kPa, x2 = 0.9 | 1.784 | – | 1.5 | 1.274

N#CCCCCC#N + CS(C)=O
303.15 K, 101.33 kPa
Settings | viscosity [mPa·s]
x1 = 0.1031 | 2.027
x1 = 0.2999 | 2.489
x1 = 0.4015 | 2.76
x1 = 0.5024 | 3.06
x1 = 0.5947 | 3.343
x1 = 0.6945 | 3.682
x1 = 0.8441 | 4.243

CC(O)C(=O)O (stereo unspecified) + C[C@H](N)C(=O)O
101 kPa, x2 = 0.5
Settings | viscosity [mPa·s]
298.15 K | 23710
318.15 K | 3481

CC(O)C(=O)O (stereo unspecified) + C[N+](C)(C)CCO.[Cl-]
viscosity
Settings | 100 kPa | 101 kPa
293.15 K, x2 = 0.1 | 92.67 mPa·s | –
293.15 K, x2 = 0.1667 | 107.5 mPa·s | –
293.15 K, x2 = 0.3333 | 229.3 mPa·s | –
293.15 K, x2 = 0.5 | 527 mPa·s | –
300.15 K, x2 = 0.1 | 52.02 mPa·s | –
300.15 K, x2 = 0.1667 | 59.99 mPa·s | –
300.15 K, x2 = 0.3333 | 127 mPa·s | –
300.15 K, x2 = 0.5 | 276.9 mPa·s | –
303.15 K, x2 = 0.5 | – | 1245 mPa·s
308.15 K, x2 = 0.5 | – | 877.3 mPa·s
313.15 K, x1 = 0.57 | – | 267.5 mPa·s
313.15 K, x1 = 0.9 | – | 103.5 mPa·s
313.15 K, x1 = 0.94 | – | 103.5 mPa·s
313.15 K, x2 = 0.1 | 31.27 mPa·s | –
313.15 K, x2 = 0.1667 | 35.62 mPa·s | –
313.15 K, x2 = 0.3333 | 79.44 mPa·s | –
313.15 K, x2 = 0.5 | 157.6 mPa·s | 626.3 mPa·s
318.15 K, x2 = 0.5 | – | 452.1 mPa·s
323.15 K, x2 = 0.1 | 20.21 mPa·s and 20.21 mPa·s | –
323.15 K, x2 = 0.1667 | 23.07 mPa·s | –
323.15 K, x2 = 0.3333 | 51 mPa·s | –
323.15 K, x2 = 0.5 | 97.82 mPa·s | 335.1 mPa·s

Clc1cccc2ccccc12 + Cc1cc(C)cc(C)c1
viscosity [mPa·s], 101.33 kPa
Settings | x1 = 0.0983 | x1 = 0.2041 | x1 = 0.2992 | x1 = 0.3988 | x1 = 0.4984 | x1 = 0.6008 | x1 = 0.6999 | x1 = 0.8017 | x1 = 0.9016
298.15 K | 0.688 | 0.807 | 0.929 | 1.086 | 1.251 | 1.476 | 1.706 | 2.019 | 2.376
303.15 K | 0.644 | 0.753 | 0.863 | 1.003 | 1.15 | 1.346 | 1.551 | 1.826 | 2.138
308.15 K | 0.605 | 0.703 | 0.803 | 0.927 | 1.062 | 1.239 | 1.419 | 1.661 | 1.935

Clc1ccccc1 + Cc1ccc(C)cc1
101 kPa
Settings | viscosity [mPa·s]
293.15 K, x1 = 0.1144 | 0.598
293.15 K, x1 = 0.2316 | 0.621
293.15 K, x1 = 0.337 | 0.641
293.15 K, x1 = 0.4432 | 0.657
293.15 K, x1 = 0.5417 | 0.673
293.15 K, x1 = 0.6319 | 0.687
293.15 K, x1 = 0.7398 | 0.706
293.15 K, x1 = 0.8385 | 0.722
293.15 K, x1 = 0.9124 | 0.734
298.15 K, x1 = 0.1363 | 0.57
298.15 K, x1 = 0.2224 | 0.585
298.15 K, x1 = 0.3453 | 0.608
298.15 K, x1 = 0.4555 | 0.625
298.15 K, x1 = 0.5832 | 0.645
298.15 K, x1 = 0.6956 | 0.667
298.15 K, x1 = 0.7881 | 0.679
298.15 K, x1 = 0.9065 | 0.695
303.15 K, x1 = 0.1144 | 0.534
303.15 K, x1 = 0.2318 | 0.55
303.15 K, x1 = 0.3419 | 0.572
303.15 K, x1 = 0.4624 | 0.587
303.15 K, x1 = 0.5653 | 0.602
303.15 K, x1 = 0.6803 | 0.615
303.15 K, x1 = 0.7947 | 0.635
303.15 K, x1 = 0.9082 | 0.649

— the CheMixHub viscosity set
